Assay: Multi-component pharmacokinetics in rat plasma after oral administration of RB, RPA or RB-RPA extracts (UPLC-HRMS, non-compartmental analysis)
Assay type: in vivo, Sprague-Dawley rats
Conditions: rat plasma, n = 7; for AUC0-t / AUC0-∞ / Cmax / t1/2 / tmax: mean ± SD
Experimental: (Beijing, China, No. SCXK2018-0011). […] All rats were free to access the water and food until 12 h before the experiment. The animal study was reviewed and approved by the Experimental Animal Ethical Committee of Modern Research Center for Traditional Chinese Medicine, Shanxi University (animal ethic approval number: SXULL2018018), and all experimental procedures were carried out in accordance with the NIH Guide for the Care and Use of Laboratory Animals. After one week of adaptation, twenty-one rats were divided into three groups randomly, with seven rats in each group: 1) RPA group, were oral administration of Radix Paeoniae Alba extract (45 g-herb/kg); 2) RB group, were oral administration of Radix Bupleuri extract (45 g-herb/kg); 3) RB-RPA group, were oral administration of powder mixture of Radix Bupleuri and Radix Paeoniae Alba extracts (containing 45 g-herb/kg Radix Bupleuri and 45 g-herb/kg Radix Paeoniae Alba). […] Each group received intragastric administration with a volume of 10 ml/kg (rat body weight). […] All rats were free to access the water during the experiment. The blood samples at each time point were collected from seven rats. The blood samples were centrifuged at 4,000 rpm for 10 min and frozen at -80°C until analysis. Using a Thermo-Fisher Dionex UltiMate 3000 UHPLC system coupled with a Q Exactive Orbitrap-MS (Thermo-Fisher, United States) and Xcalibur workstation (Thermo-Fisher Scientific Inc.,Waltham, MA, United States) to acquire UPLC-HRMS raw data. Chromatographic separation of herb extracts and plasma samples was performed on an Acquity UPLC HSS T3 column (2.1 mm × 100 mm, 1.8 μm) maintained at 37°C. The flow rate was 0.2 ml/min and the injection volume was 5 μL. […] Mass spectrometry detection conditions were set as follows: the MS data were acquired under positive and negative ionization modes via heated electrospray ionization (HESI) source. […] The Q Exactive Orbitrap-MS has a fast positive and negative ion switching function, which could switch between positive-negative ion modes during the analysis of the same sample. So, we applied the method of switching ion modes in the detection process to quantify all analytes better. […] UPLC/MS/MS calibration and quantitation data were processed with Xcalibur workstation (Thermo-Fisher Scientific Inc., Waltham, MA, United States). For the eight components with standard reference, calculating their concentrations from the standard curves. For the other 30 components without standard reference, their concentrations were analyzed following the regression equations of homologous compounds ([Qiao et al., 2012]): paeoniflorin for P1 and M1 to M3; methylgallate for M4 to M10; saikosaponin […] and […]; saikosaponin […]; saikosaponin […]; saikosaponin B2 for P11 and M25 to […].

[1] = oral RB single extract 45 g-herb/kg
[2] = oral RB-RPA mixed extracts (45 g-herb/kg RB + 45 g-herb/kg RPA)

In the case of `C[C@H]1O[C@@H](O[C@H]2CC[C@@]3(C)[C@@H](CC[C@]4(C)[C@@H]3C=CC3=C5CC(C)(C)CC[C@]5(CO)[C@H](O)C[C@]34C)[C@]2(C)CO)[C@H](O)[C@@H](O)[C@H]1O` [Prosaikogenin D], the AUC0-t [1] is reported as 27.23 ± 10.38 ng·h/mL, the “AUC0-∞” value [1] is reported as 31.50 ± 8.81 ng·h/mL and the Cmax [1] is reported as 7.47 ± 3.88 ng/mL. For the same compound, the t1/2 [1] was 3.38 ± 1.75 h, the tmax [1] was 0.83 ± 0.52 h and the “Cmax, second value” [1] was 6.32 ± 3.38 ng/mL. For the same compound, the “tmax, second value” [1] was 1.75 ± 1.02 h, the AUC0-t [2] was 32.79 ± 15.58 ng·h/mL and the “AUC0-∞” value [2] was 34.59 ± 14.83 ng·h/mL. For the same compound, the Cmax [2] was 8.53 ± 4.68 ng/mL, the t1/2 [2] was 2.98 ± 1.07 h and the tmax [2] was 0.71 ± 0.40 h. The “Cmax, second value” (oral RB-RPA mixed extracts) was 8.42 ± 4.54 ng/mL and the “tmax, second value” (oral RB-RPA mixed extracts) was 1.86 ± 0.92 h.

With `CC1(C)CC[C@]23CO[C@@]4(C=C[C@@H]5[C@@]6(C)CC[C@H](O)[C@@](C)(CO)[C@@H]6CC[C@@]5(C)[C@]4(C)C[C@H]2O)[C@@H]3C1` [Saikogenin G] the AUC0-t [1] was 50.01 ± 16.60 ng·h/mL, the “AUC0-∞” value [1] was 57.20 ± 17.81 ng·h/mL and the Cmax [1] was 11.26 ± 4.74 ng/mL. The t1/2 [1] was 3.96 ± 1.59 h, the tmax [1] was 0.75 ± 0.00 h and the AUC0-t [2] was 88.79 ± 41.87 ng·h/mL. For the same compound, the “AUC0-∞” value [2] was 99.59 ± 41.70 ng·h/mL, the Cmax [2] was 12.67 ± 4.42 ng/mL and the t1/2 [2] was 6.53 ± 2.21 h. For the same compound, the tmax [2] was 0.71 ± 0.10 h.
